In patent US7622438B1, “Protein formulation for promoting hard tissue formation” (Acologix, Inc., priority 2005, dated 2009):
Entries after “also recorded” stand apart in the source; their conditions may differ.

How the values were obtained:
[1] = tested on: hemi-calvariae from 4 day old Swiss Webster mice; conditions: Middleton-Hardie et al., ASBMR 2005; cited from earlier work
COX-2 [2] = conditions: Nagel et al., Journal of Cellular Biochemistry, 2004; cited from earlier work
COX-2 [3] = test: Gene expression microarray analysis in Clonetics hMSC cells (COX-2 mRNA); assay type: cell-based, human; conditions: for COX-2 mRNA increase: 1000 ng/ml peptide
Method: Materials and Methods: The effect of the peptide of SEQ ID No. 8 treatment on gene expression was assessed in the Clonetics hMSC cells using gene expression microarray analysis as previously described (Locklin et al., 2001). Briefly, cells were plated in five T-150 vented flasks at a density of 1.0×10^6 cells per flask in growth medium and cultured at 37° C. for 48 hours. Flasks containing either vehicle alone or the peptide of SEQ ID No. 8 (1000 ng/ml) were cultured for 24 hr or for 48 h in standard differentiation medium. At each time point, the vehicle and treatment flasks were trypsinized, cells removed and total RNA was extracted for analysis via the Qiagen Rneasy Kit (Qiagen). 8 μg of total RNA were amplified and biotin labeled. The mixture was hybridized to a U95A human gene expression microarray (Affymetrix) containing probes for 12,600 human genes. The chips were then washed, stained with phycoerythrin-streptavidin and read with an Affymetrix scanner. Hybridization intensity values to mRNA frequency were calculated in molecules per million. Analysis of intensity values was conducted using Spotfire Decision Site (Somerville, Mass.) software.

[4] = tested on: MC3T3-E1 subclone 4 cells; test: BMP-2 stimulated PGE2 production by MC3T3 cells (ELISA); assay type: cell-based, mouse; conditions: suboptimal rhBMP-2 plus varying doses of peptide, 24 hours; FIG. 2
Method: Methods: MC3T3-E1 subclone 4 cells are neonatal mouse derived calvarial preosteoblasts with fibroblast morphology. […] For this experiment the MC3T3 cells were plated 10^5 cells per well in 24 well plates in growth medium (alpha MEM+1 mM sodium pyruvate+10% fetal bovine serum (FBS)). After 24 hours of culture the media was removed and replaced with assay media (alphaMEM+1 mM sodium pyruvate+2% FBS) containing the test substances. Each test group utilized 4 wells. After incubation for a further 24 hours the media was removed and the levels of PGE2 were determined using an ELISA (R&D Systems).

human mesenchymal cells = test: PGE2 in human mesenchymal cells in culture; assay type: cell-based; conditions: peptide alone
Smad1/5/8 = test: Phosphorylation of Smad1/5/8 by Western blotting in primary osteoblasts; assay type: cell-based, mouse; conditions: 2 uM peptide added to 25 ng/mL BMP-2; FIG. 3
Method: Phosphorylation of Smad1/5/8 was evaluated by Western blotting at 0, 0.5, 1, 2, 12, 24, 48 and 72 hours.

[5] = tested on: dorsal muscle of mice (ICR); test: Ectopic bone formation from polymer pellets implanted in mouse dorsal muscle; assay type: in vivo
Description: The mice were sacrificed 3 weeks later and the newly formed bones were isolated for evaluation using soft X-ray radiograph and bone mineral density determination.

[6] = tested on: hard tissue forming cells; test: General activity statements on hard tissue forming cells
[7] = tested on: primary osteoblasts collected from fetal mouse calvaria; test: Alkaline phosphatase (ALP) activity in primary osteoblasts under suboptimal BMP-2; assay type: cell-based
Method: The peptide of SEQ ID No. 8 was added to this culture system at 0, 0.2, 0.4, 1.0, 2.0, and 4.0 μM. The levels of ALP were evaluated on days 0, 3, and 7.

[8] = tested on: hemi-calvariae from 4 day old Swiss Webster mice; test: Mouse calvaria organ culture assay (PGE2, new bone formation histology); assay type: cell-based; conditions: peptide 1, 10, 100 μg/mL daily for seven days
Description: Methods: Calvarial organ cultures have been used for many years to study the regulation of bone formation and bone resorption. An advantage of this method compared to in vivo studies is the absence of confounding effects (such as hormonal and mechanical influences) meaning a more direct effect of the test substances on bone tissue can be determined. Also compared to isolated cell systems, interrelationships between the different cell types in the bone and between these cells and the bone matrix are preserved.
Briefly, hemi-calvariae were isolated from 4 day old Swiss Webster mice and incubated in media on steel mesh grids. The peptide of SEQ ID NO. […] Samples of the conditioned media were collected daily for analysis of PGE2 concentration (R&D Systems ELISA kit). At the end of the culture the bones were analyzed for new bone formation and number of osteoblasts using histology.

[9] = 2 μM peptide with 25 ng/mL BMP-2

ALP activity increase as compared with the control group [7, 9]: about 3 times
Sequence: TDLQERGDNDISPFSGDGQPFKD [SEQ ID No. 8]
production of PGE2 in mouse calvaria organ culture assay [1]: dose dependently upregulated
COX-2 in human mesenchymal stem cells (COX-2 [2]): upregulated
COX-2 mRNA increase (COX-2 [3]; 24 h): 3.6 fold
COX-2 mRNA increase (COX-2 [3]; 48 h): 2.2 fold
mRNA for cyclooxygenase-2 (COX-2) increase, summary (COX-2 [3]; discussion summary of both time points): ~3 fold
BMP-2 induced PGE2 production [4]: increases; also recorded: dose dependent production
increase in PGE2 (human mesenchymal cells): did not result in a significant increase
time over which phosphorylation of Smad1/5/8 was detectable (Smad1/5/8): 0.5 to 48 h
enhancement of the BMP-2 effects on bone formation (size and mineral density of ectopic ossicles) ([5]; 3 ug BMP-2 in 30 mg polymer, peptide 0-1250 ug, three weeks): significant enhancement
efficacy of the peptide on bone formation (size and mineral density of ectopic ossicles) ([5]; 5 ug BMP-2 in 30 mg polymer, peptide 0-1250 ug, three weeks): unclear
increase in bone formation ([5]; peptide added to suboptimal dose, 3 μg of rhBMP-2): significant and dose dependent increase
biological activities for the purpose of this invention, relative ranking [6]: highest activities
ALP activity increase as compared with BMP-2 treated cells without addition of the peptide [7, 9]: ~2 times
ALP activity in osteoblastic cells ([7]; BMP-2 (suboptimal, 25 ng/mL) plus peptide 0.2-4.0 μM, FIG. 1): significantly increased; also recorded: dose dependent upregulation
PGE2 production ([8]; FIG. 4): significant increases
bone cell density ([8]; FIG. 5): significant increases
new bone formation ([8]; FIG. 5): significant increases
osteoblast surface ([8]; FIG. 5): significant increases
